According to patent US6280760A, “Peptide-coated implants and methods for producing same” (Merck Patent Gesellschaft mit beschraenkter Haftung, priority 1997, dated 2001):
Values belong to the substance of their own block, whether it stands above or below them.

Experiments:
[1] = system: MC3T3 H1 osteoblasts; assay: Adhesion of MC3T3 H1 osteoblasts to PMMA bone cement shaped articles coated with cell-selective acrylate peptides; type: cell-based, mouse; settings: for cell adhesion, calculated Abs (405 nm), osteoblasts: first part experiment
Excerpt: (§1) The model used for material coating with RGD peptides of different cell selectivity to obtain implants having locally differentiated bioactive coating patterns which should stimulate the adhesion of different cell species was polymerized PMMA bone cement shaped articles. To these were covalently coupled two RGD peptides of different cell selectivity. In this case acrylate peptide 3, type iiia, having a selectivity for alphav beta3 -/alphav beta5 -integrin-bearing osteoblasts, and acrylate peptide 5, type iiia, having a selectivity for […] -positive platelets were bonded to the PMMA shaped articles as described for Example 3.
(§2) a. In the first part experiment, PMMA shaped articles were coated with the acrylate peptides 3 and 5 in concentrations in the coating solution of 100 μM, 10 μM and 1 μM in each case. These RGD peptide-coated materials were then inoculated in parallel with osteoblasts and platelets and their cell adhesion was determined.
(§3) MC3T3 H1 osteoblasts (350,000 cells/cm^2) and human platelets (50 million cells/cm^2) were in each case inoculated in parallel both onto acrylate peptide 3- and acrylate peptide 5-coated PMMA shaped articles and their cell adhesion was determined as described in Example 3.
(§4) b. In the second part experiment, PMMA shaped articles were likewise coated with the acrylate peptides 3 and 5, but only in a concentration in the coating solution of 100 μM in each case. These RGD peptide-coated materials were then inoculated in parallel with osteoblasts, platelets or an osteoblast/platelet mixture and their cell adhesion was determined. MC3T3 H1 osteoblasts (350,000 cells/cm^2), human platelets (50 million cell/cm^2) and a cell mixture (350,000 osteoblasts/cm^2 […] 50 million platelets/cm^2) were in each case inoculated in parallel both onto acrylate peptide 3- and acrylate peptide 5-coated PMMA shaped articles and their cell adhesion was determined as described in Example 3.

[2] = system: human platelets; assay: Adhesion of human platelets to PMMA bone cement shaped articles coated with cell-selective acrylate peptides; type: cell-based; settings: for cell adhesion, calculated Abs (405 nm), platelets: first part experiment
Excerpt: as §1, §2, §3
Human platelets were prepared following the process of Shattil and Brass (J. Biol. Chem. 262:992-1000, 1987).
as §4

[3] = system: osteoblasts/platelets mixture; assay: Adhesion of an osteoblast/platelet mixture to PMMA bone cement shaped articles coated with cell-selective acrylate peptides; type: cell-based, mouse, human; settings: second part experiment; 100 μM peptide in the coating solution
Procedure: as §4

[4] = system: MC3T3 H1 osteoblasts; assay: Adhesion of MC3T3 H1 osteoblasts to PMMA moulded articles coated with acrylate RGD peptides; type: cell-based, mouse; settings: for maximal adsorption rates: 48,000 cells/cm^2, 1 hour
Procedure: For the covalent coupling of these peptides to polymerized PMMA (polymethyl methacrylate) surfaces, appropriate shaped articles of differing porosity (diameter: 10 mm; height: 2 mm) were prepared from three different PMMA components.
Bone cement based on PMMA (Merck KGaA, Germany, Licence No. 5181.00.00) corresponding to the product description (40 g of powder+20 ml of liquid).
10 g of PMMA/PHEMA (polyhydroxyethyl methacrylate) granules, particle size 0.5-0.6 mm (Biomet) were mixed with 1.3 ml of an HEMA solution (68.6% HEMA, 29.4% TEGMA [triethylene glycol dimethacrylate], 2% tBPB, [tert-butyl peroxybenzoate]) and adhered by means of this to a porous support material.
10 g of PMMA granules (Plex Y7H, Rohm, Germany), particle fraction 0.7-2 mm were mixed with 1.5 ml of a methyl methacrylate (MMA) solution (68.6% MMA, 29.4% TEGMA, 2% tBPB) and adhered by this means to a porous support material.
For the covalent coupling of the acrylate peptides to the prepolymerized PMMA moulded articles, stock solutions of the acrylate peptides 1, 2, 3 and 4 were prepared in a final concentration of 100 μM in each case in DMSO/0.2% camphorquinone (w/v). Then, by dilution with isopropanol/0.2% camphorquinone (w/v), concentration series having final peptide concentrations of 0.1 nM, 1 nM, 10 nM, 100 nM, 1 μM and 10 μM in each case were prepared. The moulded articles were incubated in daylight and at room temperature for 2 hours and then stored at 4° C. in the dry state. Before use, the samples were washed with PBS, pH 7.4, to remove unbound peptides and stored at 4° C. in PBS, pH 7.4, overnight.
By addition of 250 μl/moulded article each of a 5% strength BSA solution in PBS, pH 7.4, and subsequent incubation for 2 hours at room temperature and washing once with PBS, pH 7.4, non-specific cell-binding sites were blocked.
Subsequently, the adhesion of osteoblasts of the MC3T3 H1 line, obtained from the calvaria of neonatal mice (Heermeier et al., 1995, Cells and Materials 5: 309-321) to the above-described peptide-coated surfaces was investigated.
The MC3T3 H1 osteoblasts were inoculated at an inoculation density of 48,000 cells/cm^2, as described above, in Costar 48-well plates, with PMMA moulded articles coated with RGD peptide and then incubated for 1 hour at 37° C., 95% atmospheric humidity and 5% CO2. Cells non-adhered during the experiment were then washed off twice with PBS, pH 7.4.
(§5) The quantification of the adhered cells was carried out indirectly via the activity determination of the cellular enzyme N-acetylhexosaminidase using an appropriate standard curve according to the method of Landegren (1984, J. Immunol. Methods, 67: 379-388).

[5] = system: primary rat osteoblasts; assay: Adhesion of primary rat osteoblasts to BSA-pretreated polystyrene surfaces coated with thiol-RGD peptides via sulpho-SMPB; type: cell-based; settings: 48,000 cells/cm^2, 1 hour
Procedure: (§6) The covalent coupling of the peptides according to the invention with sulphosuccinimidyl 4-(p-maleimidophenyl)butyrate (sulpho-SMPB) to culture surfaces of polystyrene precoated with bovine serum albumin (BSA) was accomplished following the established processes of Singer et al., 1987, J. Cell. Biol. 104: 573, or of Ruoslahti et al. (1982, Methods. Enzymol., 82: 803-831).
(§7) To do this, 48-well plates (Costar, "non-tissue culture treated", Art. No. 3547) were each coated with 250 μl of PBS (phosphate-buffered saline), pH=8.3, 2% BSA, per well and incubated overnight at room temperature in order to generate a BSA layer on the polystyrene. The plates were then washed with 250 μl of PBS, pH=8.3, per well and incubated at room temperature for 1 hour with 250 μl each of a solution containing 100 μg/ml of SMPB in PBS, pH 8.3. Washing of the wells was then carried out three times using 250 μl of PBS, pH 8.3, each time. For the preparation of the coating solutions, the appropriate thiol-RGD peptide was prepared in the following final concentrations in PBS, pH 8.3: 1 nM, 10 nM, 100 nM, 1 μM, 10 μM, 100 μM and 1 mM. […]
as §5

[6] = system: primary human osteoblasts; assay: Adhesion of primary human osteoblasts to BSA-pretreated polystyrene surfaces coated with thiol-RGD peptides via sulpho-SMPB; type: cell-based; settings: 48,000 cells/cm^2, 1 hour
Procedure: as §6, §7, §5

[7] = system: human melanoma cell line M21L; assay: Adhesion of alphav beta3-/alphav beta5-negative control cells M21L to thiolpeptide-coated BSA-polystyrene surfaces; type: cell-based; settings: BSA-pretreated polystyrene coated with thiolpeptide
Procedure: as §6, §7, §5

[8] = system: osteoblast cultures; assay: Adhesion of the different osteoblast cell species to thiolpeptide-coated BSA-polystyrene surfaces (statements over all cultures); type: cell-based, mouse, human, rat; settings: all osteoblast cultures employed
Procedure: as §6, §7, §5

[9] = system: MC3T3 H1 osteoblasts; assay: Adhesion of MC3T3 H1 osteoblasts to BSA-pretreated polystyrene surfaces coated with thiol-RGD peptides via sulpho-SMPB; type: cell-based, mouse
Procedure: as §6
To do this, 48-well plates (Costar, "non-tissue culture treated", Art. No. 3547) were each coated with 250 μl of PBS (phosphate-buffered saline), pH=8.3, 2% BSA, per well and incubated overnight at room temperature in order to generate a BSA layer on the polystyrene. The plates were then washed with 250 μl of PBS, pH=8.3, per well and incubated at room temperature for 1 hour with 250 μl each of a solution containing 100 μg/ml of SMPB in PBS, pH 8.3. Washing of the wells was then carried out three times using 250 μl of PBS, pH 8.3, each time. For the preparation of the coating solutions, the appropriate thiol-RGD peptide was prepared in the following final concentrations in PBS, pH 8.3: 1 nM, 10 nM, 100 nM, 1 μM, 10 μM, 100 μM and 1 mM. After addition of 250 μl each of coating solution/well, the plates were incubated at room temperature overnight and then washed three times with PBS, pH 8.3. By addition of 250 μl each of a 5% strength BSA solution in PBS, pH 7.4, subsequent incubation for 2 hours at room temperature and washing with PBS, pH 7.4, non-specific cell-binding sites were blocked. Polystyrene surfaces, which from the coating were treated with a 5% strength BSA solution identically to the positive samples, functioned as negative coating controls. The adhesion of four cell cultures which were obtained from three different species was then investigated on the abovementioned surfaces coated with RGD peptide:
osteoblast cell line MC3T3 H1, obtained from the calvaria of neonatal mice (Heermeier et al., 1995, Cells and Materials, 5: 309-321), and
The cell species described were inoculated with an inoculation density of 48,000 cells/cm^2 into, as described above, Costar-48 well plates coated with RGD peptide, and then incubated for 1 hour at 37° C., 95% atmospheric humidity and 5% CO2. Cells unadhered during the experiment were then washed off twice with PBS, pH 7.4.
as §5

[10] = system: primary human osteoprogenitor cells; assay: Adhesion of primary human osteoprogenitor cells to BSA-pretreated polystyrene surfaces coated with thiol-RGD peptides via sulpho-SMPB; type: cell-based; settings: 48,000 cells/cm^2, 1 hour
Procedure: as §6, §7, §5

[11] = 1 μM peptide in the coating solution
[12] = 10 μM peptide in the coating solution
[13] = 100 μM peptide in the coating solution
[14] = second part experiment, 100 μM peptide in the coating solution
[15] = bone cement shaped articles, FIG. 8
[16] = different PMMA moulded articles

Substance: cyclo (RGDf[acrylic-ahx-tEG-KG]) [acrylate peptide 5]
cell adhesion, calculated Abs (405 nm), osteoblasts [1, 11]: about 0.2 Abs
cell adhesion, calculated Abs (405 nm), osteoblasts [1, 12]: about 1.0 Abs
cell adhesion, calculated Abs (405 nm), osteoblasts [1, 13]: about 1.5 Abs
cell adhesion, Abs, osteoblasts alone [1, 14]: about 1.5 Abs
cell adhesion, calculated Abs (405 nm), platelets [2, 11]: about 0.2 Abs
cell adhesion, calculated Abs (405 nm), platelets [2, 12]: about 0.5 Abs
cell adhesion, calculated Abs (405 nm), platelets [2, 13]: about 4.0 Abs
cell adhesion, Abs, platelets alone [2, 14]: about 4.0 Abs
cell adhesion, Abs, osteoblasts/platelets inoculated as a mixture [3]: about 6.5 Abs

EC50 ([4]; different PMMA moulded articles, read-out: half-maximal cell bindings, RGD peptide concentration in the coating solution): 0.001 to 10 µM
Substance: cyclo(RGDf[acrylic-ahx-tEG-tEGK]) [acrylate peptide 4]
cell adsorption rates increased in comparison with uncoated surfaces [4, 15]: 5-15 fold
maximal adsorption rates [4, 16]: 80-100%
cell adsorption rates increased in comparison with uncoated surfaces ([4]; porous PMMA/PHEMA granule shaped articles, FIG. 9): 2-5 fold
cell adsorption rates increased in comparison with uncoated surfaces ([4]; porous Plex Y7H granule shaped articles, FIG. 10): 2-3 fold

Substance: cyclo-RGDfK NH--CO--CH2 --CH2 --CO--NH--CH2 --CH2 --S-- (sulpho-SMPB) [thiolpeptide 2-(sulpho-SMPB) derivative]
maximum adsorption rate (of the inoculated cells) [5]: about 70%
maximum adsorption rate (of the inoculated cells) [6]: about 80%
cell adhesion of alphav beta3-/alphav beta5-negative control cells (M21L) [7]: do not show any significant cell adhesion
cell adsorption rates raised compared with 5% BSA-coated surfaces [8]: 20-40 fold
stimulation of the adhesion of cultured mouse MC3T3 H1 osteoblasts ([9]; BSA-pretreated polystyrene, peptide coupled via sulpho-SMPB, FIG. 2): strong and dose-dependent stimulation
maximum adsorption rate (of the inoculated cells) ([9]; MC3T3 H1 mouse osteoblasts, 48,000 cells/cm^2, 1 hour): 90-100%
maximum adsorption rate (of the inoculated cells) [10]: about 80%

Substance: cyclo(RGDf[acrylic-ahx-K]) [acrylate peptide 1]
stimulation of cell adhesion (in words) ([4]; PMMA carriers, comparison of anchor lengths): almost inactive
cell adsorption rates increased in comparison with uncoated surfaces [4, 15]: about 1.5 fold
maximal adsorption rates [4, 16]: about 20%
